Here are results for six compounds from ChEMBL document CHEMBL5724914, “Linking interpersonal differences in gut microbiota composition and drug biotransformation activity” (2024).

For data set [1] the following is noted: human gut metagenome, 24 h, 2 µM.
For data set [2] the following is noted: human gut metagenome, 24 h, 2 µM. The source holds these as a separate data set.
Data set [3] is described as follows: The drug is tested on Z-023 corresponding to metagenome with ENA study accession number: PRJEB37062 and ENA sample accession number: ERS12561822 for biotransformation under anaerobic condition. The drug concentrations were measured over 9 timepoints collected between 0 and 24 hours of incubation by liquid-chromatography-coupled mass spectrometry (LC–MS). To be noted: 2 µM.

A short description of data set [4]: The drug is tested on WLS-090 corresponding to human gut metagenome with ENA study accession number: PRJEB37062 and ENA sample accession number: ERS12561753 for biotransformation under anaerobic condition. The drug concentrations were measured over 9 timepoints collected between 0 and 24 hours of incubation by liquid-chromatography-coupled mass spectrometry (LC–MS). To be noted: 2 µM.

Data set [5] can be described thus: The drug is tested on Z-013 corresponding to rabbit gut metagenome with ENA study accession number: PRJEB37062 and ENA sample accession number: ERS12561813 for biotransformation under anaerobic condition. The drug concentrations were measured over 9 timepoints collected between 0 and 24 hours of incubation by liquid-chromatography-coupled mass spectrometry (LC–MS). To be noted: 2 µM.

The conditions of data set [6]: human gut metagenome, 24 h, 2 µM. This is another data set of the same source.
The conditions of data set [7]: human gut metagenome, 24 h, 2 µM. The source holds these as a separate data set.
Data set [8] is described as follows: The drug is tested on Z-010 corresponding to metagenome with ENA study accession number: PRJEB37062 and ENA sample accession number: ERS12561810 for biotransformation under anaerobic condition. The drug concentrations were measured over 9 timepoints collected between 0 and 24 hours of incubation by liquid-chromatography-coupled mass spectrometry (LC–MS). To be noted: 2 µM.

The nature of data set [9]: The drug is tested on Z-011 corresponding to mouse gut metagenome with ENA study accession number: PRJEB37062 and ENA sample accession number: ERS12561811 for biotransformation under anaerobic condition. The drug concentrations were measured over 9 timepoints collected between 0 and 24 hours of incubation by liquid-chromatography-coupled mass spectrometry (LC–MS). To be noted: 2 µM.

A short description of data set [10]: The drug is tested on Z-017 corresponding to mouse gut metagenome with ENA study accession number: PRJEB37062 and ENA sample accession number: ERS12561816 for biotransformation under anaerobic condition. The drug concentrations were measured over 9 timepoints collected between 0 and 24 hours of incubation by liquid-chromatography-coupled mass spectrometry (LC–MS). To be noted: 2 µM.

The conditions of data set [11]: human gut metagenome, 24 h, 2 µM. This is another data set of the same source.
A short description of data set [12]: The drug is tested on Z-025 corresponding to rabbit gut metagenome with ENA study accession number: PRJEB37062 and ENA sample accession number: ERS12561824 for biotransformation under anaerobic condition. The drug concentrations were measured over 9 timepoints collected between 0 and 24 hours of incubation by liquid-chromatography-coupled mass spectrometry (LC–MS). To be noted: 2 µM.

Data set [13] can be described thus: The drug is tested on WLS-240 corresponding to human gut metagenome with ENA study accession number: PRJEB37062 and ENA sample accession number: ERS12561773 for biotransformation under anaerobic condition. The drug concentrations were measured over 9 timepoints collected between 0 and 24 hours of incubation by liquid-chromatography-coupled mass spectrometry (LC–MS). To be noted: 2 µM.

The nature of data set [14]: The drug is tested on Z-003 corresponding to pig gut metagenome with ENA study accession number: PRJEB37062 and ENA sample accession number: ERS12561803 for biotransformation under anaerobic condition. The drug concentrations were measured over 9 timepoints collected between 0 and 24 hours of incubation by liquid-chromatography-coupled mass spectrometry (LC–MS). To be noted: 2 µM.

Data set [15] can be described thus: The drug is tested on Z-009 corresponding to pig gut metagenome with ENA study accession number: PRJEB37062 and ENA sample accession number: ERS12561809 for biotransformation under anaerobic condition. The drug concentrations were measured over 9 timepoints collected between 0 and 24 hours of incubation by liquid-chromatography-coupled mass spectrometry (LC–MS). To be noted: 2 µM.

For data set [16] the following is noted: human gut metagenome, 24 h, 2 µM. The source holds these as a separate data set.
For data set [17] the following is noted: human gut metagenome, 24 h, 2 µM. The source holds these as a separate data set.
Data set [18] in a line: The drug is tested on Z-030 corresponding to mouse gut metagenome with ENA study accession number: PRJEB37062 and ENA sample accession number: ERS12561829 for biotransformation under anaerobic condition. The drug concentrations were measured over 9 timepoints collected between 0 and 24 hours of incubation by liquid-chromatography-coupled mass spectrometry (LC–MS). To be noted: 2 µM.

The conditions of data set [19]: human gut metagenome, 24 h, 2 µM. This is another data set of the same source.
Data set [20] is described as follows: The drug is tested on WLS-220 corresponding to human gut metagenome with ENA study accession number: PRJEB37062 and ENA sample accession number: ERS12561769 for biotransformation under anaerobic condition. The drug concentrations were measured over 9 timepoints collected between 0 and 24 hours of incubation by liquid-chromatography-coupled mass spectrometry (LC–MS). To be noted: 2 µM.
Further: call rule not given here.

As to `C[N+]12CCC(CC1)C(OC(=O)C(O)(c1ccccc1)c1ccccc1)C2.[Br-]` (stereo not given) [CLIDINIUM BROMIDE], the “Bacterial Biotransformation” value is “Compound NOT metabolized” in data set [1]; “Compound NOT metabolized” in data set [2]; “Compound metabolized” in data set [3]; “Compound metabolized” in data set [4]; “Compound NOT metabolized” in data set [5]; “Compound NOT metabolized” in [6]. Further, the “Bacterial Biotransformation” value is listed as “Compound metabolized” in data set [7]; “Compound metabolized” in [8]; “Compound NOT metabolized” in data set [9]; “Compound NOT metabolized” in data set [10]; “Compound NOT metabolized” in data set [11]; “Compound NOT metabolized” in data set [12]. Moreover, the “Bacterial Biotransformation” value in data set [13] is recorded as “Compound metabolized”; in data set [14], “Compound metabolized”; in data set [15] it was “Compound metabolized”; in [16], “Compound metabolized”; in data set [17], “Compound NOT metabolized”; in data set [18] it was “Compound NOT metabolized”. Further, the “Bacterial Biotransformation” value in data set [19] is on record as “Compound metabolized”; in data set [20], “Compound NOT metabolized”.
As to `Clc1cccc(Cl)c1N=C1NCCN1` [CLONIDINE], the “Bacterial Biotransformation” value in data set [1] is on record as “Compound NOT metabolized”; in data set [2] it was “Compound NOT metabolized”; in data set [3], “Compound NOT metabolized”; in [4] it was “Compound metabolized”; in data set [5] it was “Compound NOT metabolized”; in data set [6] it was “Compound metabolized”. The “Bacterial Biotransformation” value in [7] is “Compound metabolized”; in data set [8] it was “Compound metabolized”; in [9], “Compound metabolized”; in data set [10], “Compound NOT metabolized”; in [11] it was “Compound metabolized”; in data set [12] it was “Compound NOT metabolized”. The “Bacterial Biotransformation” value in data set [13] is recorded as “Compound metabolized”; in data set [14] it was “Compound metabolized”; in data set [15], “Compound metabolized”; in [16], “Compound NOT metabolized”; in data set [17], “Compound metabolized”; in [18], “Compound NOT metabolized”. The “Bacterial Biotransformation” value in data set [19] and in data set [20] was “Compound metabolized” in each case.
With `COC(=O)[C@H](c1ccccc1Cl)N1CCc2sccc2C1.O=S(=O)(O)O` [CLOPIDOGREL BISULFATE], the “Bacterial Biotransformation” value in [1], in [2], in data set [3], in [4], in data set [5] and in [6] was “Compound metabolized” in each case. For the same compound, the “Bacterial Biotransformation” value in [7], in data set [8], in data set [9], in [10], in data set [11] and in [12] was “Compound metabolized” in each case. Besides, the “Bacterial Biotransformation” value in [13] was “Compound metabolized”; in [14], “Compound metabolized”; in data set [15] it was “Compound metabolized”; in data set [16], “Compound metabolized”; in [17], “Compound metabolized”; in data set [18] it was “Compound NOT metabolized”. For the same compound, the “Bacterial Biotransformation” value in data set [19] and in [20] was “Compound metabolized” each time.
As to `O=P1(N(CCCl)CCCl)NCCCO1` (stereo not given) [CYCLOPHOSPHAMIDE ANHYDROUS], the “Bacterial Biotransformation” value in data set [1] is listed as “Compound NOT metabolized”; in data set [2] it was “Compound NOT metabolized”; in data set [3] it was “Compound NOT metabolized”; in data set [4], “Compound metabolized”; in [5], “Compound NOT metabolized”; in data set [6], “Compound metabolized”. Further, the “Bacterial Biotransformation” value in [7] was “Compound metabolized”; in data set [8], “Compound NOT metabolized”; in data set [9], “Compound NOT metabolized”; in data set [10], “Compound NOT metabolized”; in data set [11], “Compound NOT metabolized”; in data set [12] it was “Compound NOT metabolized”. For the same compound, the “Bacterial Biotransformation” value was “Compound metabolized” in data set [13]; “Compound NOT metabolized” in [14]; “Compound metabolized” in data set [15]; “Compound NOT metabolized” in data set [16]; “Compound metabolized” in data set [17]; “Compound NOT metabolized” in [18]. Moreover, the “Bacterial Biotransformation” value in data set [19] and in data set [20] was “Compound metabolized” in each case.
On to `Br.COc1ccc2c(c1)[C@]13CCCC[C@@H]1[C@H](C2)N(C)CC3.O` [DEXTROMETHORPHAN HYDROBROMIDE], for which the “Bacterial Biotransformation” value is recorded as “Compound NOT metabolized” in data set [1]; “Compound NOT metabolized” in data set [2]; “Compound metabolized” in data set [3]; “Compound metabolized” in data set [4]; “Compound NOT metabolized” in data set [5]; “Compound metabolized” in data set [6]. Further, the “Bacterial Biotransformation” value is recorded as “Compound metabolized” in data set [7]; “Compound metabolized” in data set [8]; “Compound NOT metabolized” in data set [9]; “Compound NOT metabolized” in data set [10]; “Compound metabolized” in data set [11]; “Compound metabolized” in [12]. Besides, the “Bacterial Biotransformation” value in data set [13] was “Compound metabolized”; in data set [14] it was “Compound metabolized”; in data set [15], “Compound metabolized”; in data set [16], “Compound NOT metabolized”; in [17], “Compound metabolized”; in data set [18], “Compound NOT metabolized”. For the same compound, the entries for the “Bacterial Biotransformation” value in data set [19] and in [20] were “Compound NOT metabolized” and “Compound metabolized”, respectively.
For `CC(=O)Nc1ccc(OC(C)=O)cc1` [DIACETAMATE], the “Bacterial Biotransformation” value in [1], in [2], in data set [3], in data set [4], in data set [5] and in data set [6] was “Compound metabolized” in each case. Moreover, the “Bacterial Biotransformation” value in [7], in [8], in data set [9], in data set [10], in [11] and in data set [12] was “Compound metabolized” each time. The “Bacterial Biotransformation” value in [13], in data set [14], in data set [15], in [16], in data set [17] and in data set [18] was “Compound metabolized” in each case. For the same compound, the “Bacterial Biotransformation” value in data set [19] and in data set [20] was “Compound metabolized” throughout.
